# Columns and labels:
# two-spotted mite = experiment: Small scale field tests, mite control on Tendergreen bean plants; type: in vivo, Tetranychus urticae (Koch)
# Procedure: Selected enol ester compositions were evaluated in small scale field tests to determine whether the excellent miticidal properties observed in greenhouse testing would be obtained under actual conditions of field use.
# In Test I 500 ppm aqueous dispersions were prepared as described above. In tests II and III various dilutions of the test compounds ranging from 125 ppm to 1000 ppm were prepared and used. In each case the test dispersions were applied to a minimum of two replicate test plots measuring five feet in length and containing healthy young Tendergreen bean plants which had previously been infested with two-spotted mite (Tetranychus urticae (Koch)). Dispersions of the test compounds at each concentration level were applied to individual replicate plots using 1/2 gallon garden sprayers equipped with spray nozzles to apply approximately 250 ml. of test solution to each replicate. The effectiveness of the treatment was determined at intervals following application, by microscopic examination of five leaves selected at random from each replicate plot. The degree of effectiveness for each leaf was rated on a scale of from 1 to 5 with 1 indicating no control in reference to a standard sprayed with a mixture of solution less test compound and 5 indicating complete control. The results obtained from inspection of sample leaves were then averaged to give a numerical indication of the degree of control for each compound tested at the concentration applied.
# [1] = test system: adults and nymphal stages of the two-spotted mite; experiment: Mite Foliage Spray Test; type: in vivo, Tetranychus urticae (Koch); set-up: key: 1: no mortality; 3: an approximately 50% mortality; 5: 100% mortality; details: 4 days
# Excerpt: (§1) The test procedures were as follows:
# (§2) Compositions were rated on the basis of percent kill with a rating of 1 indicating no mortality; 3 signifying an approximately 50% mortality and 5 indicating 100% mortality at the indicated dosage.
# [2] = test system: egg of the two-spotted mite; experiment: Mite Ovicide Test; type: in vivo, Tetranychus urticae (Koch); set-up: key to Mite Ova rating: 1: no mortality; 3: an approximately 50% mortality; 5: 100% mortality; details: spray on eggs, 4 days
# Excerpt: as §1
# The plants were allowed to dry thoroughly.
# as §2
# [3] = test system: Perennial rye grass, crabgrass, red root pigweed, mustard; experiment: Preliminary Herbicide Seed Germination Test; details: each rated 1 (no injury) to 5 (no seedlings emerged)
# Excerpt: The thus-prepared stock suspension contained 0.5 percent by weight of compound. The test concentrations employed in the tests described hereinbelow were obtained by diluting the stock suspension with water. The test procedures were as follows:
# The following seeds were used in this test:
# Crabgrass -- Digitaria san-
# Mustard -- Brassica pincea var.
# Each of above mixtures is rolled separately in 5 gallon containers for approximately one-half hour on ball mill to insure uniform mixing of seeds and soil. For each compound four 3-inch pots are filled with soil to within 11/2 inches of top of pots. To 2 of these pots are added 70 cc. of Mixture I. To the remaining 2 pots are added 70 cc. of Mixture II. The seed-soil mixture is tamped firmly, and the pots are removed to the greenhouse and watered lightly. About 2 hours after planting, 25 milliliters of the test formulation were added to each of 2 pots for each soil-seed mixture; i.e., one replicate of each seed mixture per concentration. An equal volume of a water solution containing acetone and an emulsifier in the same concentration as the herbicidal mixture but without the candidate herbicide is also added to each of the soil-seed mixtures. These pots are used as check or control units. The test compounds are formulated by standard procedure of solution in acetone, addition of an emulsifier, and dilution with water. Tests were conducted on all compositions at low concentration (100 ppm.). Certain compositions were also tested at high concentration (1000 ppm). The pots were held in the greenhouse and watered lightly until results were taken. Ten to twelve days after application of chemical, injury is noted for each species by comparing treated vs. untreated pots. Ratings are made at both the high and the low concentrations (1000 ppm and 100 ppm) according to the following designations:
# 4 = few seedlings emerged and/or very severe stunting
# 3 = moderate reduction in stand and/or moderate stunting
# 2 = very slight reduction in stand and/or slight stunting
# 1 = no injury; seedlings appear no different with respect to stand or growth than untreated controls
# Accordingly, the maximum rating for one test seed species tested at both high and low concentration is 10 and the maximum possible total preemergence rating is 40 (10 for each of the four test seed species). […] In some tests the crabgrass experiment was omitted. In these tests the maximum total rating for species tested at both high and low concentrations is 30 and 15 for species tested only at low concentrations.
# [4] = Test I, 500 ppm, 4 days, scale 1 (no control) to 5 (complete control)
# [5] = Test I, 500 ppm, 8 days, scale 1 to 5
# [6] = Test II, 250 ppm, 3 days, scale 1 to 5
# [7] = Test II, 250 ppm, 7 days, scale 1 to 5
# [8] = Test II, 500 ppm, 3 days, scale 1 to 5
# [9] = Test II, 500 ppm, 7 days, scale 1 to 5
# [10] = rating/maximum 40: 100 and 1000 ppm, four species, 10-12 days
# [11] = rating/maximum 15: 100 ppm only, crabgrass omitted
# [12] = rating/maximum 20: 100 ppm only, four species
# [13] = rating/maximum 30: 100 and 1000 ppm, crabgrass omitted
structure (smiles),measurement,setting,value
"O=C1c2ccccc2C(=O)C1c1c(Cl)cccc1Cl [Compound B, 2-(2',6'-dichlorophenyl)-1,3-indandione, reference compound]","Average mite control rating, 1st Reading",two-spotted mite; [4],1.5
same,"Average mite control rating, 2nd Reading",two-spotted mite; [5],2.0
same,"Average mite control rating, 1st Reading",two-spotted mite; [6],3.7
same,"Average mite control rating, 2nd Reading",two-spotted mite; [7],2.3
same,"Average mite control rating, 1st Reading",two-spotted mite; [8],3.0
same,"Average mite control rating, 2nd Reading",two-spotted mite; [9],3.3
same,"Average mite control rating, 1st Reading","two-spotted mite; Test II, 1000 ppm, 3 days, scale 1 to 5",2.0
same,"Average mite control rating, 2nd Reading","two-spotted mite; Test II, 1000 ppm, 7 days, scale 1 to 5",3.3
"O=C(OC1=C(c2c(Cl)cccc2Cl)C(=O)c2ccccc21)c1ccccc1Cl [3-(2-chlorobenzoyloxy)-2-(2',6'-dichlorophenyl)indone]",Mite Adult rating,[1],5 (100% mortality)
same,Mite Ova rating,[2],5 (100% mortality)
same,"Average mite control rating, 1st Reading",two-spotted mite; [4],3.0
same,"Average mite control rating, 2nd Reading",two-spotted mite; [5],2.5
same,Herbicide (total preemergence rating),[3]; [10],30/40
"Cc1cc(C)c(C2C(=O)c3ccccc3C2=O)c(C)c1 [Compound A, 2-(2',4',6'-trimethylphenyl)-1,3-indandione, reference compound]","Average mite control rating, 1st Reading",two-spotted mite; [4],1.0
same,"Average mite control rating, 2nd Reading",two-spotted mite; [5],1.0
same,"Average mite control rating, 1st Reading",two-spotted mite; [6],1.0
same,"Average mite control rating, 2nd Reading",two-spotted mite; [7],1.3
same,"Average mite control rating, 1st Reading",two-spotted mite; [8],2.7
same,"Average mite control rating, 2nd Reading",two-spotted mite; [9],1.7
same,"Average mite control rating, 1st Reading","two-spotted mite; Test III, 250 ppm, 3 days, scale 1 to 5",1.0
same,"Average mite control rating, 2nd Reading","two-spotted mite; Test III, 250 ppm, 7 days, scale 1 to 5",2.0
same,"Average mite control rating, 1st Reading","two-spotted mite; Test III, 500 ppm, 3 days, scale 1 to 5",1.3
same,"Average mite control rating, 2nd Reading","two-spotted mite; Test III, 500 ppm, 7 days, scale 1 to 5",1.7
same,"Average mite control rating, 1st Reading","two-spotted mite; Test III, 1000 ppm, 3 days, scale 1 to 5",3.3
same,"Average mite control rating, 2nd Reading","two-spotted mite; Test III, 1000 ppm, 7 days, scale 1 to 5",3.3
same,"Average mite control rating, 3rd Reading","two-spotted mite; Test III, 1000 ppm, 21 days, scale 1 to 5",2.3
"Cc1cc(C)c(C2=C(OC(=O)c3ccccc3Cl)c3ccccc3C2=O)c(C)c1 [3-(2-Chlorobenzoyloxy)-2-(2',4',6'-trimethylphenyl)indone]",Mite Adult rating,[1],5 (100% mortality)
same,Mite Ova rating,[2],5 (100% mortality)
same,"Average mite control rating, 1st Reading",two-spotted mite; [4],2.5
same,Herbicide (total preemergence rating),[3]; [10],32/40
"O=C(OC1=C(c2c(Cl)cccc2Cl)C(=O)c2ccccc21)c1cccc(Cl)c1 [3-(3-Chlorobenzoyloxy)-2-(2',6'-dichlorophenyl)indone]",Mite Adult rating,[1],5 (100% mortality)
same,Mite Ova rating,[2],5 (100% mortality)
same,"Average mite control rating, 1st Reading",two-spotted mite; [4],3.0
same,"Average mite control rating, 2nd Reading",two-spotted mite; [5],3.0
same,Herbicide (total preemergence rating),[3]; [10],32/40
"COc1cc(C)c(C2=C(OC(=O)C(C)(C)C)c3ccccc3C2=O)c(C)c1 [2-(2',6'-Dimethyl-4'-methoxyphenyl)-3-(pivaloyloxy)indone]",Mite Adult rating,[1],3 (an approximately 50% mortality)
same,Mite Ova rating,[2],3 (an approximately 50% mortality)
same,Herbicide (total preemergence rating),[3]; [10],24/40
"Cc1cc(C)c(C2=C(OC(=O)c3cccc(Cl)c3)c3ccccc3C2=O)c(C)c1 [3-(3-Chlorobenzoyloxy)-2-(2',4',6'-trimethylphenyl)indone]",Mite Adult rating,[1],5 (100% mortality)
same,Mite Ova rating,[2],5 (100% mortality)
same,"Average mite control rating, 1st Reading",two-spotted mite; [4],1.5
same,"Average mite control rating, 2nd Reading",two-spotted mite; [5],2.0
same,Herbicide (total preemergence rating),[3]; [10],29/40
"Cc1cc(C)c(C(=O)OC2=C(c3c(Cl)cccc3Cl)C(=O)c3ccccc32)c(C)c1 [3-(2,4,6-Trimethylbenzoyloxy)-2-(2',6'-dichlorophenyl)indone]",Mite Adult rating,[1],1
same,Mite Ova rating,[2],1
same,Herbicide (total preemergence rating),[3]; [11],6/15
"Cc1cc(C)c(C2=C(OC(=O)c3cccnc3)c3ccccc3C2=O)c(C)c1 [2-(2',4',6'-Trimethylphenyl)-3-(3-pyridinecarbonyloxy)indone]",Mite Adult rating,[1],5 (100% mortality)
same,Mite Ova rating,[2],5 (100% mortality)
same,Herbicide (total preemergence rating),[3]; [12],18/20
CC(=O)OC1=C(c2ccccc2Br)C(=O)c2ccccc21 [3-Acetoxy-2-(2'-bromophenyl)indone],Mite Adult rating,[1],5 (100% mortality)
same,Mite Ova rating,[2],5 (100% mortality)
same,Herbicide (total preemergence rating),[3]; [10],19/40
"O=C(OC1=C(c2c(Cl)cccc2Cl)C(=O)c2ccccc21)c1ccc(Cl)cc1 [3-(4-Chlorobenzoyloxy)-2-(2',6'-dichlorophenyl)indone]",Mite Adult rating,[1],5 (100% mortality)
same,Mite Ova rating,[2],5 (100% mortality)
same,Herbicide (total preemergence rating),[3]; [13],23/30
"Cc1cc(C)c(C2=C(OC(=O)c3c(Cl)cccc3Cl)c3ccccc3C2=O)c(C)c1 [3-(2,6-Dichlorobenzoyloxy)-2-(2',4',6'-trimethylphenyl)indone]",Mite Adult rating,[1],1
same,Mite Ova rating,[2],1
same,Herbicide (total preemergence rating),[3]; [10],8/40
"Cc1cc(C(C)(C)C)cc(C)c1C1=C(OC(=O)C(C)(C)C)c2ccccc2C1=O [2-(2',6'-Dimethyl-4'-t-butylphenyl)-3-(pivaloyloxy)indone]",Mite Adult rating,[1],1
same,Mite Ova rating,[2],1
same,Herbicide (total preemergence rating),[3]; [10],9/40
"CCC(CC)C(=O)OC1=C(c2cc(C)ccc2C)C(=O)c2ccccc21 [2-(2',5'-Dimethylphenyl)-3-(2-ethylbutanoyloxy)indone]",Mite Adult rating,[1],3 (an approximately 50% mortality)
same,Mite Ova rating,[2],5 (100% mortality)
same,Herbicide (total preemergence rating),[3]; [12],4/20
"CCCCN(CCCC)C(=O)OC1=C(c2c(C)cc(C)cc2C)C(=O)c2ccccc21 [2-(2',4',6'-Trimethylphenyl)-3-(N,N-di(butyl)carbamoyloxy)indone]",Mite Adult rating,[1],3 (an approximately 50% mortality)
same,Mite Ova rating,[2],1
same,Herbicide (total preemergence rating),[3]; [12],10/20
"COc1cccc(OC)c1C(=O)OC1=C(c2c(Cl)cccc2Cl)C(=O)c2ccccc21 [3-(2,6-Dimethoxybenzoyloxy)-2-(2',6'-dichlorophenyl)indone]",Mite Adult rating,[1],1
same,Mite Ova rating,[2],1
same,Herbicide (total preemergence rating),[3]; [11],12/15
"COc1ccc(C(=O)OC2=C(c3c(C)cc(C)cc3C)C(=O)c3ccccc32)cc1 [3-(4-Methoxybenzoyloxy)-2-(2',4',6'-trimethylphenyl)indone]",Mite Adult rating,[1],3 (an approximately 50% mortality)
same,Mite Ova rating,[2],5 (100% mortality)
same,Herbicide (total preemergence rating),[3]; [13],21/30
CCCCCCCCCCCCCCCCCC(=O)OC1=C(c2ccccc2)C(=O)c2ccccc21 [2-Phenyl-3-(stearoyloxy)indone],Mite Adult rating,[1],1
same,Mite Ova rating,[2],1
same,Herbicide (total preemergence rating),[3]; [12],4/20
"CCCC(C)C(=O)OC1=C(c2ccc(C)cc2C)C(=O)c2ccccc21 (stereo not shown) [2-(2',4'-Dimethylphenyl)-3-(2-methylpentanoyloxy)indone]",Mite Adult rating,[1],3 (an approximately 50% mortality)
same,Mite Ova rating,[2],5 (100% mortality)
same,Herbicide (total preemergence rating),[3]; [12],14/20
CCCCC(CC)C(=O)OC1=C(c2ccccc2OC)C(=O)c2ccccc21 (stereo not shown) [3-(2-Ethylhexanoyloxy)-2-(2'-methoxyphenyl-indone],Mite Adult rating,[1],1
same,Mite Ova rating,[2],1
same,Herbicide (total preemergence rating),[3]; [12],4/20
